Reference: patent US20030166707A1, “Microsphaeropsin B as novel antibacterial agent, process for producing the same and pharmaceutical composition containing thereof” (priority 2001, published 2003)
Converted amounts (≈) assume the structure as drawn. Where two headings read alike, the source gives them in different places.

Tests used:
[1] = system: E. coli ATCC 25922; test: MIC, standard microbroth dilution (NCCLS); type: cell-based; conditions: Escherichia coli, read-out: Antibacterial activity (MIC)
Procedure: (§1) The compounds of the present invention were tested for minimum inhibitory concentrations (MICs) against the bacteria listed in Table-1 according to the standard microbroth dilution method as described in a NCCLS document. The minimum inhibitory concentrations wer expressed in μg/ml. The test bacteria of 5×10^5 CFU/ml each were subjected to serial dilutions of the test material under aerobic conditions at 35° C. for 18 hours using Mueller Hinton broth. After incubation, the first concentration of wells to show a complete growth inhibition was considered as the MIC.

[2] = system: E. faecalis 2322 VRE; test: MIC, standard microbroth dilution (NCCLS); type: cell-based; conditions: Enterococcus faecalis, read-out: Antibacterial activity (MIC)
Procedure: as §1

[3] = system: S. epdermidis ATCC1228; test: MIC, standard microbroth dilution (NCCLS); type: cell-based; conditions: read-out: Antibacterial activity (MIC)
Procedure: as §1

[4] = system: S. aureus ATCC 29213; test: MIC, standard microbroth dilution (NCCLS); type: cell-based; conditions: Staphylococcus aureus, read-out: Antibacterial activity (MIC)
Procedure: as §1

[5] = system: S. aureus TN1152MRSA; test: MIC, standard microbroth dilution (NCCLS); type: cell-based; conditions: Staphylococcus aureus, read-out: Antibacterial activity (MIC)
Procedure: as §1

[6] = system: E. faecalis 2353 VSE; test: MIC, standard microbroth dilution (NCCLS); type: cell-based; conditions: Enterococcus faecalis, read-out: Antibacterial activity (MIC)
Procedure: as §1

[7] = Solubility characteristics of isolated Microsphaeropsin B; type: physicochemical
[8] = ATCC25922, E. coli ATCC 25922, 5×10^5 CFU/ml, Mueller Hinton broth, aerobic, 35° C., 18 hours
[9] = E. faecalis 2322 VRE, 5×10^5 CFU/ml, Mueller Hinton broth, aerobic, 35° C., 18 hours
[10] = S. epdermidis ATCC1228, 5×10^5 CFU/ml, Mueller Hinton broth, aerobic, 35° C., 18 hours
[11] = ATCC29213, S. aureus ATCC 29213, 5×10^5 CFU/ml, Mueller Hinton broth, aerobic, 35° C., 18 hours
[12] = S. aureus TN1152MRSA, 5×10^5 CFU/ml, Mueller Hinton broth, aerobic, 35° C., 18 hours
[13] = E. faecalis 2353 VSE, 5×10^5 CFU/ml, Mueller Hinton broth, aerobic, 35° C., 18 hours

Row | Compound | MIC [1, 8] | MIC [2, 9] | MIC [3, 10] | MIC [4, 11] | MIC [5, 12] | MIC [6, 13] | Behaviour on addition of water ([7]; dissolution in ethanol or dimethyl sulphoxide followed by addition of water) | Solubility ([7]; in 1M sodium hydroxide solution) | Solubility ([7]; in 5% sodium bicarbonate) | Solubility ([7]; in water) | MIC ([1]; ATCC25922, 18 h) | MIC ([2]; VRE, 18 h) | MIC ([3]; 18 h) | MIC ([4]; ATCC29213, 18 h) | MIC ([5]; TN1152MRSA, 18 h) | MIC ([6]; 2353VSE, 18 h)
1 | CC1(C)S[C@@H]2[C@H](NC(=O)[C@H](N)c3ccccc3)C(=O)N2[C@H]1C(=O)O [Ampicillin] | 2 mg/L (≈ 5.72 µM) | 32 mg/L (≈ 91.6 µM) | 16 mg/L (≈ 45.8 µM) | 0.062 mg/L (≈ 0.177 µM) | 8 mg/L (≈ 22.9 µM) | 0.25 mg/L (≈ 0.715 µM) |  |  |  |  |  |  |  |  |  | 
2 | C/C=C/C=C/C1C=CC2CC(C)CCC2C1(C)C(=O)C1=C(O)C(C(C)O)NC1=O (stereo not shown) [Microsphaeropsin B] | > 32 mg/L | 2 mg/L (≈ 5.01 µM) | 1 mg/L (≈ 2.5 µM) | 0.5 mg/L (≈ 1.25 µM) | 0.5 mg/L (≈ 1.25 µM) | 1 mg/L (≈ 2.5 µM) | immediate precipitate formation | insoluble | insoluble | insoluble |  |  |  |  |  | 
3 | CN[C@H](CC(C)C)C(=O)N[C@H]1C(=O)N[C@@H](CC(N)=O)C(=O)N[C@H]2C(=O)N[C@H]3C(=O)N[C@H](C(=O)N[C@H](C(=O)O)c4cc(O)cc(O)c4-c4cc3ccc4O)[C@H](O)c3ccc(c(Cl)c3)Oc3cc2cc(c3O[C@@H]2O[C@H](CO)[C@@H](O)[C@H](O)[C@H]2O[C@H]2C[C@](C)(N)[C@H](O)[C@H](C)O2)Oc2ccc(cc2Cl)[C@H]1O [Vancomycin] |  |  |  |  |  |  |  |  |  |  | > 32 mg/L | 16 mg/L (≈ 11 µM) | 0.5 mg/L (≈ 0.345 µM) | 0.5 mg/L (≈ 0.345 µM) | 0.25 mg/L (≈ 0.173 µM) | 0.25 mg/L (≈ 0.173 µM)
